We go through three molecules from paper PMC3085482, “Phosphorylation-Dependent Differential Regulation of Plant Growth, Cell Death, and Innate Immunity by the Regulatory Receptor-Like Kinase BAK1” (PLoS Genetics, 2011).

Positions count from the first letter of the chain named. Numbers in names are those of the source.

One series has as its target T1, EFR CD (MBP-EFR) (Arabidopsis thaliana, UniProt C0LGT6).
T1 sequence (C0LGT6 682-1031): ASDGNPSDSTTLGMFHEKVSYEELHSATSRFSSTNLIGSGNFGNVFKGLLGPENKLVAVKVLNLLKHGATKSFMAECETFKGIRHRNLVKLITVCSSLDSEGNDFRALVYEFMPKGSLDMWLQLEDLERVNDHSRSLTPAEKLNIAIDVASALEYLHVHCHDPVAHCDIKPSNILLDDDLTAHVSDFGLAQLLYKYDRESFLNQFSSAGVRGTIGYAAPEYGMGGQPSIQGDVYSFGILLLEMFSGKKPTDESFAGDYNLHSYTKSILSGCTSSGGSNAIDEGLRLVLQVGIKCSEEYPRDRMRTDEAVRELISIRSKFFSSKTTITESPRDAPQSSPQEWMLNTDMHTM
The experiment in a line: in vitro kinase assay with […]-γ-ATP, SDS-PAGE autoradiography. The series is classed as biochemical. As to conditions: 1 µM unlabelled ATP plus [32P]-γ-ATP; labelled compound; myelin basic protein; 10 mM MgCl2, 10 mM MnCl2, pH 7.5, 30 °C.

In a further series the target is T2, BRI1 CD (MBP-BRI1) (Arabidopsis thaliana, UniProt O22476).
T2 sequence (O22476 814-1196): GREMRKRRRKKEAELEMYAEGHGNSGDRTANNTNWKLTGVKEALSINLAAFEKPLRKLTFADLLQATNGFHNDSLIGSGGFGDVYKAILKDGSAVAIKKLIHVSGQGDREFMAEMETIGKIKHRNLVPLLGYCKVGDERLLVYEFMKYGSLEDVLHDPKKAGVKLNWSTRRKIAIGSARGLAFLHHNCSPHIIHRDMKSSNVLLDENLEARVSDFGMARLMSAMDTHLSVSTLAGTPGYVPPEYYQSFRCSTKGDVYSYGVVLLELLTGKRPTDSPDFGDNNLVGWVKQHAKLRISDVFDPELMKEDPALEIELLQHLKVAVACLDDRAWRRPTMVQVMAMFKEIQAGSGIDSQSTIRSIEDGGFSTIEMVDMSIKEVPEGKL
The description is as above. Type of series: biochemical. As to conditions: 1 µM unlabelled ATP plus [32P]-γ-ATP; labelled compound; myelin basic protein; 10 mM MgCl2, 10 mM MnCl2, pH 7.5, 30 °C.

Substrate in series [1]: Nc1ncnc2c1ncn2[C@@H]1O[C@H](COP(=O)(O)OP(=O)(O)OP(=O)(O)O)[C@@H](O)[C@H]1O
Briefly: autophosphorylation over ATP range, PVDF blot autoradiography (PhosphorImager). The series is classed as biochemical, Arabidopsis thaliana.

For the molecule `Nc1ncnc2c1ncn2[C@@H]1O[C@H](COP(=O)(O)OP(=O)(O)OP(=O)(O)O)[C@@H](O)[C@H]1O` [ATP], the “in vitro kinase assay with [32P]-γ-ATP, SDS-PAGE autoradiography” value is “EFR CD possessed only minor auto-phosphorylation capacity” on EFR CD (MBP-EFR); “BRI1 CD had a very strong auto- and trans-phosphorylation capacity” on BRI1 CD (MBP-BRI1).

B1: BAK1 CD (GST-BAK1) (Arabidopsis thaliana) (protein)
chain: DHFFDVPAEEDPEVHLGQLKRFSLRELQVASDNFSNKNILGRGGFGKVYKGRLADGTLVAVKRLKEERTQGGELQFQTEVEMISMAVHRNLLRLRGFCMTPTERLLVYPYMANGSVASCLRERPESQPPLDWPKRQRIALGSARGLAYLHDHCDPKIIHRDVKAANILLDEEFEAVVGDFGLAKLMDYKDTHVTTAVRGTIGHIAPEYLSTGKSSEKTDVFGYGVMLLELITGQRAFDLARLANDDDVMLLDWVKGLLKEKKLEALVDVDLQGNYKDEEVEQLIQVALLCTQSSPMERPKMSEVVRMLEGDGLAERWEEWQKEEMFRQDFNYPTHHPAVSGWIIGDSTSQIENEYPSGPR
notes: cytoplasmic domain residues 256-615, N-terminal GST tag kept (pGEX-4T1), E. coli BL21, glutathione purified
On to B1, for which, in series [1] (autophosphorylation of GST-BAK1 CD), the Km result is “∼7 µM”.

B2: BAK1 CD (GST-BAK1) (Arabidopsis thaliana; C408Y) (protein)
chain: B1 chain with C153Y
notes: as for B1
Consider B2, for which, in series [1] (autophosphorylation of GST-BAK1 CD (BAK1-5 protein)), the Km result is given as “∼25 µM”.
